Target: T1, Kinase A and SpoOF (Bacillus subtilis, UniProt P16497)
T1 construct: made in house; host or cells: recombinant E. coli (overexpression)
T1 sequence (P16497 1-606): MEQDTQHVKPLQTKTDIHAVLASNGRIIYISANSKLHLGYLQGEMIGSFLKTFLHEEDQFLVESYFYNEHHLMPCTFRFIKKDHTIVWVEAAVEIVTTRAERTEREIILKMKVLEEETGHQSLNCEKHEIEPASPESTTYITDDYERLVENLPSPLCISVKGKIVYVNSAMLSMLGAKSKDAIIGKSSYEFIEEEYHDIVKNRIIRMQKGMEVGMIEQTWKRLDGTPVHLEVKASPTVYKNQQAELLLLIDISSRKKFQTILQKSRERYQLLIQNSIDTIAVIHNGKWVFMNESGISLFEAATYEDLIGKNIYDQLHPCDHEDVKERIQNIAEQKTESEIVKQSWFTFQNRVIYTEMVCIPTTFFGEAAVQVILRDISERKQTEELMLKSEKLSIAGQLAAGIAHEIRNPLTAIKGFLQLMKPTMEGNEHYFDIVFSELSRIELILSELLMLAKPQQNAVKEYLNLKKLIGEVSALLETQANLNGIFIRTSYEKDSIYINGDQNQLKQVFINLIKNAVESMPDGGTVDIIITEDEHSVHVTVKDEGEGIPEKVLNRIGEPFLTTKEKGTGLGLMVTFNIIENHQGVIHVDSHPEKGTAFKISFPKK
Test: Autophosphorylation of Kinase A and Transphosphorylation of SpoOF Assay (HPK in vitro assay)
Type: biochemical
Conditions: inhibition of KinA autophosphorylation / SpoOF transphosphorylation, inhibitor concentrations from 1 to 500 μM
Protocol: 1. Autophosphorylation of Kinase A and Transphosphorylation of SpoOF Assay
To study the effect of the compounds of the present invention on the signal transduction process in bacteria, the inhibiting effect of the compounds on the sporulation operon proteins Kinase A and SpoOF was examined. Specifically, the inhibition of autophosphorylation of Kinase A and the transphosphorylation of SpoOF was determined in the following assays. The SpoOF response regulator is the primary substrate for phosphorylation by the protein kinase, Kin A, involved in the sporulation process in bacteria. See D. Burbulys, K. A. Trach, J. A. Hoch, Cell, 64, 545-552 (1991). SpoOF and KinA were prepared from recombinant E. coli overexpressing the proteins (J. Cavanagh et al, Amino Acids, 6, 131-140 (1994) and references therein).
The following stock reagents were either prepared and used promptly or stored at the indicated temperature:
8× Salts: 2M KCl (5 mL), 1M MgCl2 (800 mL), 1M CaCl2 (100 mL), 10 mg/mL phenylmethylsulfonyl fluoride (200 mL), 1M dithioreitol (50 mL), 0.25M Na2 EDTA (32 mL) and H2 O 3.82 mL (-20° C.)
5× Loading Dye: 0.5M TRIS-HCl-pH 6.8 (7.5 mL), 10% SDS (2 mL) 0.1% bromophenol blue (0.5 mL), 100% glycerol (3 mL) and 12.5M 2-mercaptoethanol (0.3 mL)
1-1.3 mg/mL KinA:15 mM TRIS-HCl, pH 8.0, 6 mM KCl; 4 mM 2-mercaptoethanol; 40% glycerol (-20° C.)
1 mg/mL SpoOF: 17.5 mM TRIS-HCl, pH 8.0; 0.7 mM KCl; 0.7 mM MgCl2; 0.7 mM CaCl2; 5mM 2-mercaptoethanol; 30% Glycerol (-20° C.)
5% Stacking Gel: 40% 29:1 acrylamide:bis acrylamide (1.25 mL), 0.5M TRIS-HCl, pH 6.8 (2.5 mL), 10% SDS (0.1 mL), D-H2 O (6.15 mL) 10% ammonium persulfate (100 mL) and TEMED (25 mL)
SDS Running Buffer: TRIS-BASE (3.02 g), glycine (14.4 g) SDS (1 g), D-H2 O (to 1 L)
The reaction mixture was prepared from 8× Salts (87 μL), 1M TRIS, pH 8 (118 μL), 50% glycerol (63 μL), SpoOF (14.1 μL) and KinA (7.0 μL). Microcentrifuge tubes were charged with the reaction mixture (18.5 μL) and a 1.0 mM solution of the test compound in 5% DMSO (18.5 μL), and incubated for 15 min on ice. 100 mM ATP solution (3.0 μl, containing 625 μCi [^32 P]ATP) was added, and the mixture left for 10 minutes at room temperature. The reaction was quenched with 5× loading dye (10 μL per tube) and the samples were loaded on a prepared 5% Stacking Gel, or stored on dry ice until ready for use. The prepared wells were filled with SDS Running Buffer, samples were loaded into the wells, and 80 volts were applied to the gel until the dye front reached the bottom of the stacking gel. The voltage was then increased to 250 volts until electrophoresis was complete. Radioactive bands in the gel corresponding to phosphorylated KinA and SpoOF were imaged and quantitated with a phosphoimager.
If either enzyme was inhibited (as evidenced by the absence of labelled protein in the developed gel), an IC50 was calculated by running the assay with a range of inhibitor concentrations from 1 to 500 μM. After electrophoresis of the reaction mixtures, percent inhibition was determined by measuring the concentration of radioactive phosphorus with a phosphoimager and calculating the values using a software program (BioRad Molecular Analyst). IC50 values of less than 500 μM are considered active.

Row | Compound | IC50
1 | Cl.N=C(N)NCCc1ccc(OCCC2Oc3cc([N+](=O)[O-])ccc3N(Cc3cccc(Cl)c3)C2=O)cc1 (stereo not shown) [Compound 84, 3,4-Dihydro-4-(3-chlorobenzyl)-2-{2-[4-(2-guanidinoethyl)phenoxy]ethyl}-7-nitro-3-oxo-2H-1,4-benzoxazine Monohydrochloride] | 30 µM
2 | Cl.N=C(N)NCCc1ccc(OCCC2Oc3cc([N+](=O)[O-])ccc3N(Cc3ccccc3Cl)C2=O)cc1 (stereo not shown) [Compound 87, 4-(2-Chlorobenzyl)-3,4-dihydro-2-{2-[4-(2-guanidinoethyl)phenoxy]ethyl}-7-nitro-3-oxo-2H-1,4-benzoxazine Monohydrochloride] | 11 µM
3 | N=C(N)NCCc1ccc(OCCC2Oc3cc([N+](=O)[O-])ccc3N(Cc3cccc([N+](=O)[O-])c3)C2=O)cc1 (stereo not shown) [Compound 91, 3,4-Dihydro-2-{2-[4-(2-guanidinoethyl)phenoxy]ethyl}-7-nitro-4-(3-nitrobenzyl)-3-oxo-2H-1,4-benzoxazine] | 33 µM
4 | N=C(N)NCCc1ccc(OCCC2Oc3ccccc3N(Cc3cccc([N+](=O)[O-])c3)C2=O)cc1 (stereo not shown) [Compound 95, 3,4-Dihydro-2-{2-[4-(2-guanidinoethyl)phenoxy]ethyl}-4-(3-nitrobenzyl)-3-oxo-2H-1,4-benzoxazine] | 32 µM
5 | N=C(N)NCCc1ccc(OCCC2Oc3cc([N+](=O)[O-])ccc3N(Cc3ccc([N+](=O)[O-])cc3)C2=O)cc1 (stereo not shown) [Compound 97, 3,4-Dihydro-2-{2-[4-(2-guanidinoethyl)phenoxy]ethyl}-7-nitro-4-(4-nitrobenzyl)-3-oxo-2H-1,4-benzoxazine] | 53 µM
6 | COc1ccc2c(c1)OC(CCOc1ccc(CCNC(=NC(=O)OC(C)(C)C)NC(=O)OC(C)(C)C)cc1)C(=O)N2Cc1cccc([N+](=O)[O-])c1 (stereo not shown) [Compound 99, 2-{2-[4-(2-(N,N'-Bis-tert-butoxycarbonylguanidino)ethyl)phenoxy]ethyl}-3,4-dihydro-7-methoxy-4-(3-nitrobenzyl)-3-oxo-2H-1,4-benzoxazine] | 343 µM
7 | COc1ccc2c(c1)OC(CCOc1ccc(CCNC(=N)N)cc1)C(=O)N2Cc1cccc([N+](=O)[O-])c1 (stereo not shown) [Compound 100, 3,4-Dihydro-2-{2-[4-(2-guanidinoethyl)phenoxy]ethyl}-7-methoxy-4-(3-nitrobenzyl)-3-oxo-2H-1,4-benzoxazine] | 32 µM
8 | CC(C)(C)OC(=O)NCCc1ccc(OCCC2Oc3ccccc3N(Cc3cccc(C(=O)O)c3)C2=O)cc1 (stereo not shown) [Compound 111, 3-{3,4-Dihydro-2-[2-(4-(2-(-t-butoxycarbonylamino)ethyl)phenoxy)]ethyl-3-oxo-2H-1,4-benzoxazin-4-yl}methylbenzoic Acid] | 113 µM
9 | COc1ccc(CN2C(=O)C(CCOc3ccc(CCNC(=NC(=O)OC(C)(C)C)NC(=O)OC(C)(C)C)cc3)Oc3ccccc32)cc1 (stereo not shown) [Compound 140, 2-{2-[4-[2-(N,N-Bis-tert-butoxycarbonylguanidino)ethyl]phenoxy]ethyl}-3,4-dihydro-4(4-methoxybenzyl)-3-oxo-2H-1,4-benzoxazine] | 343 µM
10 | CC(C)(C)OC(=O)N=C(NCCc1ccc(OCCC2Oc3cc([N+](=O)[O-])ccc3N(Cc3ccccc3[N+](=O)[O-])C2=O)cc1)NC(=O)OC(C)(C)C (stereo not shown) [Compound 143, 2-{2-[4-(2-(N,N-Bis-tert-butoxycarbonylguanidino)ethyl)phenoxy]ethyl}-3,4-dihydro-7-nitro-4-(2-nitrobenzyl) 3-oxo-2H-1,4-benzoxazine] | 73 µM
11 | CC(C)(C)OC(=O)NCCc1ccc(OCCC2Oc3ccccc3N(Cc3cccc(Cl)c3)C2=O)cc1 (stereo not shown) [Compound 144, 2-[2-[4-(2-(t-Butoxycarbonylamino)ethyl)phenoxy]ethyl]-4-(3-chlorobenzyl)-3,4-dihydro-3-oxo-2H-1,4-benzoxazine] | 348 µM

Other lines, results leading:

Row | IC50 | Compound
12 | 24 µM | COC(=O)c1ccc(CN2C(=O)C(CCOc3ccc(CCN)cc3)Oc3ccccc32)cc1 (stereo not shown) [Compound 104, 2-{2-[4-(2-Aminoethyl)phenoxy]ethyl}-4-(4-carbomethoxybenzyl)-3,4-dihydro-3-oxo-2H-1,4-benzoxazine]
13 | 166 µM | COC(=O)c1cccc(CN2C(=O)C(CCOc3ccc(CCN)cc3)Oc3ccccc32)c1 (stereo not shown) [Compound 106, 2-{2-[4-(2-Aminoethyl)phenoxy]ethyl}-4-(3-carbomethoxybenzyl)-3,4-dihydro-3-oxo-2H-1,4-benzoxazine]
14 | 324 µM | NCCc1ccc(OCCC2Oc3ccccc3N(Cc3ccc(C(=O)O)cc3)C2=O)cc1 (stereo not shown) [Compound 110, 4-{3,4-Dihydro-2-[2-(4-(2-aminoethyl)phenoxy)]ethyl-3-oxo-2H-1,4-benzoxazin-4-yl}methylbenzoic Acid]
15 | 254 µM | NCCc1ccc(OCCC2Oc3ccccc3N(Cc3cccc(C(=O)O)c3)C2=O)cc1 (stereo not shown) [Compound 112, 3-{3,4-Dihydro-2-[2-(4-(2-aminoethyl)phenoxy)]ethyl-3-oxo-2H-1,4-benzoxazin-4-yl}methylbenzoic Acid]
16 | 251 µM | O=C(O)CCc1cccc(OCCC2Oc3ccccc3N(Cc3cccc(Cl)c3)C2=O)c1 (stereo not shown) [Compound 127, 3-[3-[2-{4-(3-Chlorobenzyl)-3,4-dihydro-3-oxo-2H-1,4-benzoxazin-2-yl}ethoxy]phenyl]propionic Acid]
17 | 23 µM | O=C1NC(=O)C(c2ccc(OCCC3Oc4ccccc4N(Cc4cccc(Cl)c4)C3=O)cc2)S1 (stereo not shown) [Compound 134, 5-[4-{2-[4-(3-Chlorobenzyl)-3,4-dihydro-3-oxo-2H-1,4-benzoxazin-2-yl]ethoxy}phenyl]thiazolidine-2,4-dione]
18 | 24 µM | N=C(N)NCCc1ccc(OCCC2Oc3ccccc3N(Cc3ccc([N+](=O)[O-])cc3)C2=O)cc1 (stereo not shown) [Compound 139, 3,4-Dihydro-2-{2-[4-(2-guanidinoethyl)-phenoxy]ethyl}-4-(4-nitrobenzyl)-3-oxo-2H-1,4-benzoxazine]
19 | 42 µM | NCCCc1ccc(OCCC2Oc3ccccc3N(Cc3ccc(Cl)cc3)C2=O)cc1 (stereo not shown) [Compound 142, 2-[2-[4-(3-Aminopropyl)phenoxy]ethyl]-4-(4-chlorobenzyl)-3,4-dihydro-3-oxo-2H-1,4-benzoxazine]

From patent US5696117A, “Benzoxazine antimicrobial agents” (Ortho Pharmaceutical Corporation, priority 1995, dated 1997)
